In data set [1] the test system is embryonic kidney cells (293T cells). As to the kind of experiment: Mitosis block / morphology of treated cell cultures, 293T. The data set is classed as cell-based, human. Particulars: for morphological changes characteristic of block in mitosis (M phase arrest): 293T normal cells, FIG. 1: L1 0.74 mM, Colcemid 5.41 mM. An excerpt: (§1) The commercial embryonic cell line of the human kidney 293T (Banca Biologica and Cell Factory—IRCCS AOU San Martino—IST Genova, catalog code ICLC HTL03003), that of murine macrophages J774 and RAW (ICLC ATL98011 and ATL02001), that of Glioblastoma del human brain T98G (ATCC® CRL-1690™) and that of human epithelial adenocarcinoma Caco-2 (ICL HTL97023), were provided by the National Institute for Research on Cancer c/o CBA (ICLC, Genoa). A minimal essential cell culture medium, MEM (EBSS), with 10% fetal bovine serum (FBS), 100 units per mL penicillin, […] streptomycin, 2 mM glutamine and 1% not essential amino acids was used. To reach the experimental conditions, the confluent cells were isolated using trypsin/EDTA. The cells of the different cell lines (2-3×10^4 cells per cm^2) were seeded in 35 mm cell discs and then incubated at 37° C. in 5% CO2. After 24 hours of growth in complete culture medium, the cells were cultured according to the different experimental conditions foreseen by the project.

Data set [2] deals with RAW macrophages. As to the kind of experiment: Mitosis block / morphology of treated cell cultures, RAW. Type of data set: cell-based, murine. As to conditions: RAW normal cells; FIG. 1: L1 0.74 mM, Colcemid 5.41 mM.
Excerpt: as §1

Data set [3] has as its system T98G (human glioblastoma) cells. As to the kind of experiment: Mitosis block / morphology of treated cell cultures, T98G. Type of data set: cell-based. As to conditions: for morphological changes characteristic of block in mitosis (M phase arrest): T98G, 24 hours of culture, FIG. 1: L1 0.74 mM, Colcemid 5.41 mM; for antiproliferative activity (through the inhibition of mitosis): T98G tumor cells.
Excerpt: as §1

Data set [4] concerns Caco2 (colon adenocarcinoma) cells. As to the kind of experiment: Mitosis block / morphology of treated cell cultures, CaCo2. As to conditions: for morphological changes characteristic of block in mitosis (M phase arrest): CaCo2, 24 hours of culture, FIG. 1: L1 0.74 mM, Colcemid 5.41 mM; for antiproliferative activity (through the inhibition of mitosis): CaCo2 tumor cells.
Excerpt: as §1

In data set [5] the test system is macrophages (J774 cells).
Excerpt: as §1

In data set [6] the test system is BAX, BCL2, OH-1, PRDX gene expression in 293T cells. As to conditions: 24 hours, L1 0.74 mM (FIG. 6). As for the experimental part: (§2) Coding for a protein that may play a role in the control of cell proliferation and in tumor development and progression.
(§3) The cells, after treatment, were immediately frozen and stored at −80° C. until RNA extraction. The RNA was extracted with the NorDiag ARROW RNA Kit using the company's automated tool. Actin was used as a reference gene. Real-time reverse transcriptase PCR was performed using the Roche Light Cycler System and the SYBR Green I Amplification Kit (Roche Diagnostics). The primers used for the beta actin control gene are as follows: b-actF=5′-[…]-3′, b-actR=5′-[…]-3′, e (Gen-Bank n. NM_001101). While the following oligo nucleotides were used for the genes under consideration:
(§4) The final reaction volume of 20 μl contained: a final concentration of 3 mM MgCl2, […] of each primer and 2 μl of RNA extract. The real time reaction program includes: an initial reverse transcription at 55° C. for 10 minutes, a denaturation cycle at 95° C. for 30 seconds followed by 35 cycles at 95° for 5 seconds, 53° C. for 10 seconds and 72° C. for 12 seconds, the fluorescence reading was performed in the 72° C. phase
(§5) The relative gene expression was analyzed using the 2-AACT method [KJ Livak and TD Schmittgen, Analysis of relative gene expression data by Quantitative real-time PCR and 2-AACT method, methods, 2001, 25, 402-408]. Three distinct experimental replicates were performed for each analysis and the quantitative data were expressed as mean. The experiment was repeated if the dispersion of the values of the threshold cycles, compared to the mean, was too high. A standard deviation for each replicate equal to ±1 cut-off cycle was accepted.

Data set [7] concerns BAX, BCL2, OH-1, PRDX gene expression in CaCo2 cells. Particulars: 24 hours, L1 0.74 mM (FIG. 6). As for the experimental part: as §2, §3, §4, §5
The test system of data set [8] is CaCo2 cells. The method, then: A possible cytotoxic effect (ID50) of the L1 molecule was evaluated in CaCo2 cells by viable staining with trypan blue under different experimental conditions. Cell number (FIG. 3) and viability (FIG. 4) were assessed using the LunaFL cell counter (www.logosbio.com) or by direct observation under the light microscope. Briefly, the cell samples mixed and diluted 1:1 with a 0.2% Trypan Blue solution were counted, after 1-3 minutes, in the counting chamber slide present in the analyzer of the Luna automatic system. […] To obtain an accurate measurement of cell viability, the cell count was repeated at least three times in at least three experiments under the same experimental conditions. The observation under the optical microscope (FIG. 5) was made by adding the Trypan Blue solution to the cells to be observed for a few minutes. The percentage of live cells (trypan blue negative) compared to dead ones (trypan blue positive) in each experimental culture condition was then calculated.

The subject of data set [9] is Caco-2 human epithelial adenocarcinoma cells. As for the experimental part: Treated and untreated control samples of Caco-2 human epithelial adenocarcinoma cells were fixed for 2 hours in 1% paraformaldehyde (para) and 1.25% glutaraldehyde solution in 0.1 M, pH 7.4 sodium cacodylate buffer. After rinsing in the same buffer, the samples were post-fixed in 1% osmium tetroxide for 1 hour and stained in 0.25% uranyl acetate overnight at 4° C.
The cell cultures were dehydrated in increasing scale of ethanol and xylene, subsequently, to proceed with the embedding in Embed 812 resin, the samples were transferred in inclusion flat molds in an oven at 60° C. for the 24 hours necessary for the polymerization of the resin. From the resulting blocks, 1 μm thick sections were obtained and then stained with toluidine blue for preliminary analysis by light microscopy. Finally, thin sections of 60-90 nm (ultramicrotome 8800 LKB), contrasted with […] and bismuth subnitrate, were observed and photographed with a transmission electron microscope (model JEOL 1400 plus, Tokyo, Japan) operating at 80 kV.

The mark [10] stands for this setting: Caco2, treatment continued for up to 72 hours.

“Also recorded” adds a separate entry of the source.

`CN[C@H]1CCc2cc(OC)c(OC)c(OC)c2-c2ccc(OC)c(=O)cc21` [Colcemid, desacetylmethylcolchicine, reference compound]: the “morphological changes characteristic of block in mitosis (M phase arrest)” value (“morphological changes characteristic” for short) in data set [1] was “all cell lines respond”; in [2] it was “all cell lines respond”; in data set [3], “all cell lines respond”; in data set [3] (listed as colcemide), “all cell lines studied showed the morphological changes characteristic of blocked cells in mitosis”; in [4], “all cell lines respond”; in data set [4] (listed as colcemide), “all cell lines studied showed the morphological changes characteristic of blocked cells in mitosis”.
Turning to `O=c1cc(CNCCNCc2cc(=O)c(O)co2)occ1O` [L1, 2,2′-ethane-1,2-diylbis (iminomethanediyl)This(5-hydroxy-4H-pyran-4-one)], the “morphological changes characteristic” value in data set [1] was “apparently normal”. In addition, the “effect in non-tumor cell line” value in data set [1] (embryonic kidney cells (293 cells)) is “no effect”. Further, in [5], the “effect in non-tumor cell line” value is “no effect”. For the same molecule, the “morphological changes characteristic” value in data set [2] was “apparently normal”. Moreover, in [3], the “antiproliferative activity (through the inhibition of mitosis)” value is reported as “showed antiproliferative activity” and the “morphological changes characteristic” value was “showed morphological changes characteristic of mitotic-blocked cells; also recorded: arrest in M phase similar to that induced by Colcemid”. Moreover, in data set [6], the “BAX gene expression (mRNA)” value is “increased expression”, the “BCL2 gene expression (mRNA)” value is reported as “increased expression”, the “OH-1 gene expression (mRNA)” value was “increased expression” and the “PRDX gene expression (mRNA)” value is listed as “completely inhibiting the expression”. Besides, in data set [7], the “BAX gene expression (mRNA)” value is reported as “significantly reduces the expression”, the “BCL2 gene expression (mRNA)” value is listed as “significantly reduces the expression”, the “OH-1 gene expression (mRNA)” value is “significantly reduces the expression” and the “PRDX gene expression (mRNA)” value is recorded as “significantly reduces the expression”. For the same molecule, in data set [8] (L1 0.74 mM (FIG. 4)), the “viability (Trypan Blue, LunaFL)” value is “comparable to that of the respective control”. In data set [8] (repeated treatments with L1), the “number of cells after repeated treatments” value is “further reduction in the number of cells”. The “number of cells compared to those not treated (LunaFL count)” value in [8] (treated for 24 hours, L1 0.74 mM (FIG. 3)) is recorded as “clear reduction in the number of CaCo2 cells”. Further, the “effect on cell division by ultrastructural analysis (SEM and TEM)” value in data set [9] (Caco2, L1 0.74 mM (FIG. 2)) is given as “acts specifically on the cell division (mitosis) process”. The “nuclear fragmentation (microscopy)” value in [9] (Caco-2, L1 0.74 mM (FIG. 2A)) was “occasionally, cells showing fragmentation of their nuclei have been observed”. The “cellular architecture during the interphase (TEM)” value in [9] (Caco-2, L1 0.74 mM (FIG. 2B)) is on record as “does not appear to affect the cellular architecture of most cells”. Also, in data set [4], the “morphological changes characteristic” value is given as “showed morphological changes characteristic of mitotic-blocked cells; also recorded: arrest in M phase similar to that induced by Colcemid” and the “antiproliferative activity (through the inhibition of mitosis)” value was “showed antiproliferative activity”. Besides, in data set [4] (Caco2), the “concentration at which all the cells have a modified morphology” value is 2.22 mM, the “treatment time after which half of the Caco2 cells were blocked in mitosis” value is 4.5 h and the “treatment time after which the block of all treated cells was achieved” value turned out to be 24 h. Moreover, the “minimum concentration able to induce evident morphological changes” value in [4] (Caco2, after 24 hours of treatment) was determined as 0.069 mM. Besides, the “reduction in the number of cells versus control sample (on average)” value in data set [4] (Caco2, control = same cell line cultured without L1) is on record as 4 times lower. In addition, in data set [4] (setting [10]), the “cell fate on continued treatment” value is “begin to die from apoptosis” and the “reversibility of mitosis inhibition” value is given as “irreversible”. In addition, in [4] (Caco2, treatment stopped after 24 hours, medium replaced), the “reversibility of mitosis inhibition” value is recorded as “reversible”.
Regarding `O=c1cc(CNCCCNCc2cc(=O)c(O)co2)occ1O` [L2, 2,2′-[propane-1,3-diylbis (iminomethanediyl)]bis(5-hydroxy-4H-pyran-4-one)], the “antiproliferative activity (through the inhibition of mitosis)” value in data set [3] is “not those (L2, L3 and L4) showed antiproliferative activity”; in [4], “not those (L2, L3 and L4) showed antiproliferative activity”.
As to `O=c1cc(CNCCCCNCc2cc(=O)c(O)co2)occ1O` [L3, 2,2′-[butane-1,4-diylbis (iminomethanediyl)]bis(5-hydroxy-4H-pyran-4-one)], the “antiproliferative activity (through the inhibition of mitosis)” value in [3] was “not those (L2, L3 and L4) showed antiproliferative activity”; in [4] it was “not those (L2, L3 and L4) showed antiproliferative activity”.
For the molecule `O=c1cc(CNCCN(CCNCc2cc(=O)c(O)co2)CCNCc2cc(=O)c(O)co2)occ1O` [L4, 6,6′,6″-(((nitrilotris(ethane-2,1-diyl))tris(azanediyl))tris(methylene))tri s(3-hydroxy-4H-pyran-4-one)], the “antiproliferative activity (through the inhibition of mitosis)” value in data set [3] is “not those (L2, L3 and L4) showed antiproliferative activity”; in data set [4] it was “not those (L2, L3 and L4) showed antiproliferative activity”.

The values are drawn from patent US20230338328A1, “KOJIC ACID DERIVATIVE AS SELECTIVE INHIBITOR OF MITOSIS IN COLORECTAL AND GLIOBLASTOMA CANCER CELLS” (UNIVERSITA' DEGLI STUDI DI CAGLIARI, priority 2020, published 2023).
